Assay results from PubChem BioAssay AID2060906 (Molecular Pharmacology Branch, DTP, NCI, 2025).

Tested on: 485176-168-R4-J1-PDC complex spheroid growth
Test: Anticancer human tumor 485176-168-R4-J1-PDC patient-derived pancreatic adenocarcinoma cell line growth inhibition [RAS]
Settings: for IC50: curve of first compound; for viability, T/C: stronger effect = lower value; active means viability on the fitted dose curve at most 10% of control; inactive means the rest
Procedure, shortened: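 Agents were tested in combination matrices in half-log decrements from a top concentration at or near clinical Cmax (10 microM if undetermined). Targets were multi-cell spheroids of tumour lines plus HUVEC and MSC stromal cells.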

[1] = second compound 0.000949 µM, first compound 0.0316 µM
[2] = second compound 0.000949 µM, first compound 0.1 µM
[3] = second compound 0.000949 µM, first compound 0.316 µM
[4] = second compound 0.000949 µM, first compound 1 µM
[5] = second compound 0.000949 µM, first compound 3.16 µM
[6] = second compound 0.000949 µM, first compound 10 µM
[7] = second compound 0.003 µM, first compound 0.0316 µM
[8] = second compound 0.003 µM, first compound 0.1 µM
[9] = second compound 0.003 µM, first compound 0.316 µM
[10] = second compound 0.003 µM, first compound 1 µM
[11] = second compound 0.003 µM, first compound 3.16 µM
[12] = second compound 0.003 µM, first compound 10 µM
[13] = second compound 0.00949 µM, first compound 0.0316 µM
[14] = second compound 0.00949 µM, first compound 0.1 µM
[15] = second compound 0.00949 µM, first compound 0.316 µM
[16] = second compound 0.00949 µM, first compound 1 µM
[17] = second compound 0.00949 µM, first compound 3.16 µM
[18] = second compound 0.00949 µM, first compound 10 µM
[19] = second compound 0.03 µM, first compound 0.0316 µM
[20] = second compound 0.03 µM, first compound 0.1 µM
[21] = second compound 0.03 µM, first compound 0.316 µM
[22] = second compound 0.03 µM, first compound 1 µM
[23] = second compound 0.03 µM, first compound 3.16 µM
[24] = second compound 0.03 µM, first compound 10 µM
[25] = second compound 0.0949 µM, first compound 0.0316 µM
[26] = second compound 0.0949 µM, first compound 0.1 µM
[27] = second compound 0.0949 µM, first compound 0.316 µM
[28] = second compound 0.0949 µM, first compound 1 µM
[29] = second compound 0.0949 µM, first compound 3.16 µM
[30] = second compound 0.0949 µM, first compound 10 µM
[31] = second compound 0.3 µM, first compound 0.0316 µM
[32] = second compound 0.3 µM, first compound 0.1 µM
[33] = second compound 0.3 µM, first compound 0.316 µM
[34] = second compound 0.3 µM, first compound 1 µM
[35] = second compound 0.3 µM, first compound 3.16 µM
[36] = second compound 0.3 µM, first compound 10 µM
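Further: spheroids exposed to compounds for seven days before readout.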
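Wherever viability, T/C is given: luminescence viability expressed relative to DMSO vehicle wells set as 100%.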

CC1(O)CCCC1n1c(=O)c(C(F)F)cc2cnc(NC3CCN(S(C)(=O)=O)CC3)nc21 (centres undefined) + CCn1c(-c2cccnc2C(C)OC)c2c3cc(ccc31)N1CCOC(CC(NC(=O)C(C(C)C)N(C)C(=O)C3(F)CCN(C(=O)C#CC(C)(C)N(C)C)CC3)C(=O)N3CCCC(N3)C(=O)OCC(C)(C)C2)C1
inactive: viability, T/C [1] 114% | viability, T/C [2] 75% | viability, T/C [3] 70.6% | viability, T/C [4] 78.2% | viability, T/C [5] 60.8% | viability, T/C [7] 103% | viability, T/C [8] 92.7% | viability, T/C [9] 76.6% | viability, T/C [10] 72.8% | viability, T/C [11] 57% | viability, T/C [13] 90.4% | viability, T/C [14] 74.7% | viability, T/C [15] 60.6% | viability, T/C [16] 69.8% | viability, T/C [17] 57% | viability, T/C [19] 110% | viability, T/C [20] 78.7% | viability, T/C [21] 87.2% | viability, T/C [22] 65.9% | viability, T/C [23] 63.5% | viability, T/C [25] 89.2% | viability, T/C [26] 76.2% | viability, T/C [27] 69.6% | viability, T/C [28] 68.1% | viability, T/C [29] 56.1% | viability, T/C [31] 78.7% | viability, T/C [32] 70.5% | viability, T/C [33] 58.1% | viability, T/C [34] 54.6% | viability, T/C [35] 47.8%
3390 nM: IC50 (second compound 0.00949 µM)
3310 nM: IC50 (second compound 0.03 µM)
active: viability, T/C [6] 4.58% | viability, T/C [12] 3.48% | viability, T/C [18] 3.15% | viability, T/C [24] 2.51% | viability, T/C [30] 2.02% | viability, T/C [36] 3.3%
3410 nM: IC50 (second compound 0.000949 µM)
1680 nM: IC50 (second compound 0.3 µM)
3320 nM: IC50 (second compound 0.0949 µM)
3170 nM: IC50 (second compound 0.003 µM)

CCC(CC)c1cc(NC2CCC(N)C2)n2nccc2n1 (centres undefined) + CCn1c(-c2cccnc2C(C)OC)c2c3cc(ccc31)N1CCOC(CC(NC(=O)C(C(C)C)N(C)C(=O)C3(F)CCN(C(=O)C#CC(C)(C)N(C)C)CC3)C(=O)N3CCCC(N3)C(=O)OCC(C)(C)C2)C1
active: viability, T/C [5] 2.09% | viability, T/C [6] 0.42% | viability, T/C [11] 2.19% | viability, T/C [12] 0.46% | viability, T/C [17] 2.5% | viability, T/C [18] 0.59% | viability, T/C [23] 2.5% | viability, T/C [24] 0.41% | viability, T/C [29] 2.64% | viability, T/C [30] 0.46% | viability, T/C [35] 2.76% | viability, T/C [36] 0.53%
1080 nM: IC50 (second compound 0.03 µM)
1440 nM: IC50 (second compound 0.003 µM)
1270 nM: IC50 (second compound 0.00949 µM)
1260 nM: IC50 (second compound 0.000949 µM)
1010 nM: IC50 (second compound 0.0949 µM)
521 nM: IC50 (second compound 0.3 µM)
inactive: viability, T/C [1] 94.6% | viability, T/C [2] 117% | viability, T/C [3] 86% | viability, T/C [4] 64.1% | viability, T/C [7] 105% | viability, T/C [8] 104% | viability, T/C [9] 100% | viability, T/C [10] 72.1% | viability, T/C [13] 88.4% | viability, T/C [14] 79.7% | viability, T/C [15] 98.8% | viability, T/C [16] 62.6% | viability, T/C [19] 96% | viability, T/C [20] 105% | viability, T/C [21] 95.9% | viability, T/C [22] 53.7% | viability, T/C [25] 87% | viability, T/C [26] 77.3% | viability, T/C [27] 94.2% | viability, T/C [28] 50.3% | viability, T/C [31] 82.9% | viability, T/C [32] 72.8% | viability, T/C [33] 64.5% | viability, T/C [34] 32.7%
